# Molecular target: T1, Peroxisome proliferator-activated receptor gamma (Homo sapiens, UniProt P37231)
# T1 sequence (P37231 whole entry): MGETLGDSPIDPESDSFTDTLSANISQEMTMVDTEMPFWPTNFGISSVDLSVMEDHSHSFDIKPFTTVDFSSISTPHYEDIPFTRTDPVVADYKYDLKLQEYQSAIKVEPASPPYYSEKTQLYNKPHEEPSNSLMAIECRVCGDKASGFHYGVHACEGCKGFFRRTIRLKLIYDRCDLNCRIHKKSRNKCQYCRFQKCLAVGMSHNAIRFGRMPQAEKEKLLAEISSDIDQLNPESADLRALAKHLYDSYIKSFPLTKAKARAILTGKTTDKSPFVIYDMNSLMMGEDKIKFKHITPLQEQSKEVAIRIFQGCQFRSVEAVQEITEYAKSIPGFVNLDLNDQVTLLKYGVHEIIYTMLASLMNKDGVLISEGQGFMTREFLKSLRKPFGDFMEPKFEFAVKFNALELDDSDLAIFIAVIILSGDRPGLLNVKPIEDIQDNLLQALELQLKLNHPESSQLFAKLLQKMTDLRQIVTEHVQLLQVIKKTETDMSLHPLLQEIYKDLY
# Description: Displacement of [3H]rosiglitazone from PPAR gamma
row,Structure (SMILES),IC50 [nM]
1,CC1=C(C(=O)O)C(c2ccc(OCCn3c4ccccc4c4ccccc43)cc2)NC(=O)N1 (centres undefined),900
2,COc1cc(C2NC(=O)NC(C)=C2C(=O)O)ccc1OCCn1c2ccccc2c2ccccc21 (centres undefined),820
3,CC1=C(C(=O)O)C(c2ccc(OCCOc3cccc4[nH]c5ccccc5c34)cc2)NC(=O)N1 (centres undefined),1000
4,CC1=C(C(=O)O)C(c2ccc(OCCOc3cccc4ccc(C)nc34)cc2)NC(=O)N1 (centres undefined),600
5,COc1cc(C2NC(=O)NC(C)=C2C(=O)O)ccc1OCCOc1cccc2ccc(C)nc12 (centres undefined),800
6,CC1=C(C(=O)O)C(c2ccc(OCCn3ccc4cccnc43)cc2)NC(=O)N1 (centres undefined),1000
7,COc1cc(C2NC(=O)NC(C)=C2C(=O)O)ccc1OCCn1ccc2cccnc21 (centres undefined),720
8,CC1=C(C(=O)O)C(c2ccc(OCCOc3cc(C)nc4ccccc34)cc2)NC(=O)N1 (centres undefined),760
9,COc1cc(C2NC(=O)NC(C)=C2C(=O)O)ccc1OCCOc1cc(C)nc2ccccc12 (centres undefined),940
10,COc1cccc2c1c1ccccc1n2CCOc1ccc(C2NC(=O)NC(C)=C2C(=O)O)cc1 (centres undefined),800
11,CC1=C(C(=O)O)C(c2ccc(OCCCn3ccc4cccnc43)cc2)NC(=O)N1 (centres undefined),750
12,CC1=C(C(=O)O)C(c2ccc(OCCCOc3cc(C)nc4ccccc34)cc2)NC(=O)N1 (centres undefined),750
13,CC1=C(C(=O)O)C(c2ccc(OCCOc3ccc(C(=O)c4ccc(Cl)cc4)cc3)cc2)NC(=O)N1 (centres undefined),930
14,CC1=C(C(=O)O)C(c2ccc(OCCCOc3cccc4[nH]c5ccccc5c34)cc2)NC(=O)N1 (centres undefined),900
